# Values joined by “and” are separate entries in the source; they are usually repeats but may differ in a detail not shown here. Identical values can stand only once. Numbers after ± are expanded uncertainties.
# Conditions: Liquid
smiles,measurement,setting,value
CCCCCCCCCCCCCCCCCCCCCCCCCCC [heptacosane],vapor or sublimation pressure,401.68 K,0.000592 ± 3.8e-05 kPa
same,vapor or sublimation pressure,401.69 K,0.00059 ± 3.8e-05 kPa
same,vapor or sublimation pressure,411.78 K,0.00129 ± 7e-05 kPa
same,vapor or sublimation pressure,411.81 K,0.0013 ± 7e-05 kPa
same,vapor or sublimation pressure,421.93 K,0.00269 ± 0.00012 kPa
same,vapor or sublimation pressure,421.95 K,0.00272 ± 0.00012 kPa
same,vapor or sublimation pressure,432.03 K,0.00556 ± 0.00024 kPa
same,vapor or sublimation pressure,442.18 K,0.011 ± 0.0005 kPa
same,vapor or sublimation pressure,452.27 K,0.0214 ± 0.0009 kPa
same,vapor or sublimation pressure,462.27 K,0.0405 ± 0.0017 kPa and 0.0401 ± 0.0016 kPa
CCCCCCCCCCCCCCCCCCCCCCCCCCCCCC [triacontane],vapor or sublimation pressure,432.36 K,0.00115 ± 6e-05 kPa
same,vapor or sublimation pressure,432.37 K,0.00113 ± 6e-05 kPa
same,vapor or sublimation pressure,442.48 K,0.00233 ± 0.00011 kPa
same,vapor or sublimation pressure,452.32 K,0.00457 ± 0.0002 kPa
same,vapor or sublimation pressure,452.34 K,0.00451 ± 0.0002 kPa
CCCCCCCCCCCCCCCCCCCCCCC [tricosane],vapor or sublimation pressure,412.18 K,0.0129 ± 0.0005 kPa
same,vapor or sublimation pressure,422.26 K,0.0248 ± 0.001 kPa
same,vapor or sublimation pressure,422.29 K,0.0247 ± 0.001 kPa
same,vapor or sublimation pressure,432.34 K,0.0461 ± 0.0019 kPa
same,vapor or sublimation pressure,442.33 K,0.0839 ± 0.0034 kPa
same,vapor or sublimation pressure,452.22 K,0.143 ± 0.006 kPa
same,vapor or sublimation pressure,461.99 K,0.242 ± 0.01 kPa
CCCCCCCCCCCCCCCCCCCCC [heneicosane],vapor or sublimation pressure,351.54 K,0.000396 ± 3.1e-05 kPa
same,vapor or sublimation pressure,361.52 K,0.000971 ± 5.3e-05 kPa
same,vapor or sublimation pressure,371.42 K,0.0022 ± 0.0001 kPa
same,vapor or sublimation pressure,381.65 K,0.00498 ± 0.00021 kPa
same,vapor or sublimation pressure,391.86 K,0.0106 ± 0.0004 kPa
same,vapor or sublimation pressure,402.05 K,0.0213 ± 0.0009 kPa
same,vapor or sublimation pressure,422.19 K,0.0751 ± 0.0031 kPa
same,vapor or sublimation pressure,432.27 K,0.133 ± 0.005 kPa
same,vapor or sublimation pressure,442.3 K,0.228 ± 0.009 kPa
same,vapor or sublimation pressure,452.22 K,0.378 ± 0.015 kPa
same,vapor or sublimation pressure,461.96 K,0.611 ± 0.025 kPa
CCCCCCCCCCCCCCCCCCCCCCCCCCCCC [nonacosane],vapor or sublimation pressure,422.1 K,0.00097 ± 5.3e-05 kPa and 0.000971 ± 5.3e-05 kPa
same,vapor or sublimation pressure,432.12 K,0.00206 ± 0.0001 kPa
same,vapor or sublimation pressure,442.17 K,0.00421 ± 0.00018 kPa
same,vapor or sublimation pressure,442.19 K,0.00417 ± 0.00018 kPa
same,vapor or sublimation pressure,452.2 K,0.00824 ± 0.00035 kPa
same,vapor or sublimation pressure,452.23 K,0.00819 ± 0.00035 kPa
CCCCCCCCCCCCCCCCCCCCCCCCC [pentacosane],vapor or sublimation pressure,381.69 K,0.000331 ± 2.8e-05 kPa
same,vapor or sublimation pressure,391.91 K,0.000783 ± 4.6e-05 kPa
same,vapor or sublimation pressure,402.03 K,0.00178 ± 9e-05 kPa
same,vapor or sublimation pressure,411.75 K,0.00383 ± 0.00017 kPa
same,vapor or sublimation pressure,411.78 K,0.00383 ± 0.00017 kPa
same,vapor or sublimation pressure,422.02 K,0.00802 ± 0.00034 kPa
same,vapor or sublimation pressure,432.21 K,0.0158 ± 0.0007 kPa
same,vapor or sublimation pressure,442.33 K,0.0296 ± 0.0012 kPa
same,vapor or sublimation pressure,442.34 K,0.0299 ± 0.0012 kPa
same,vapor or sublimation pressure,452.24 K,0.0541 ± 0.0022 kPa
same,vapor or sublimation pressure,452.25 K,0.0534 ± 0.0022 kPa
same,vapor or sublimation pressure,461.95 K,0.0926 ± 0.0038 kPa
same,vapor or sublimation pressure,461.98 K,0.0923 ± 0.0038 kPa and 0.0938 ± 0.0038 kPa
